Assay results from US20120071322A1, “Substituted Pyridopyrazines with a Herbicidal Action” (BASF SE, priority 2009, published 2012).

How the values were obtained:
SETIT = assay: greenhouse experiment, pre-emergence treatment; format: in vivo, Setaria italica; conditions: pre-emergence method, application rate 3.0 kg/ha, scale from 0 to 100
From the text: The seeds of the test plants were sown separately for each species. For the pre-emergence treatment, the active compounds, which had been suspended or emulsified in water, were applied directly after sowing by means of finely distributing nozzles. The containers were irrigated gently to promote germination and growth and subsequently covered with transparent plastic hoods until the plants had rooted. This cover caused uniform germination of the test plants, unless this has been impaired by the active compounds. Depending on the species, the plants were kept at 10-25° C. or 20-35° C. The test period extended over 2 to 4 weeks. During this time, the plants were tended, and their response to the individual treatments was evaluated. Evaluation was carried out using a scale from 0 to 100. 100 means no emergence of the plants, or complete destruction of at least the aerial moieties, and 0 means no damage, or normal course of growth. A good herbicidal activity is given at values of at least 70 and a very good herbicidal activity is given at values of at least 85. [table]

ABUTH = assay: greenhouse experiment, post-emergence treatment; format: in vivo, Abutilon theophrasti; conditions: post-emergence method, application rate 3.0 kg/ha, scale from 0 to 100
From the text: (§1) The seeds of the test plants were sown separately for each species. For the post-emergence treatment, the test plants were first grown to a height of 3 to 15 cm, depending on the plant habit, and then treated with the active compounds which had been suspended or emulsified in water. For this purpose, the test plants were either sown directly and grown in the same containers, or they were first grown separately as seedlings and transplanted into the test containers a few days prior to treatment. Depending on the species, the plants were kept at 10-25° C. or 20-35° C. The test period extended over 2 to 4 weeks. During this time, the plants were tended, and their response to the individual treatments was evaluated. Evaluation was carried out using a scale from 0 to 100. 100 means no emergence of the plants, or complete destruction of at least the aerial moieties, and 0 means no damage, or normal course of growth. A good herbicidal activity is given at values of at least 70 and a very good herbicidal activity is given at values of at least 85. [table]

AVEFA = assay: greenhouse experiment, post-emergence treatment; format: in vivo, Avena fatua; conditions: post-emergence method, application rate 3.0 kg/ha, scale from 0 to 100
From the text: as §1

SETFA = assay: greenhouse experiment, post-emergence treatment; format: in vivo, Setaria faberi; conditions: post-emergence method, application rate 3.0 kg/ha, scale from 0 to 100
From the text: as §1

## O=c1oc2nccnc2c(O)c1-c1ccccc1C(F)(F)F [example 1, 8-Hydroxy-7-(2-trifluoromethylphenyl)pyrano[2,3-b]pyrazin-6-one]
SETIT
  herbicidal activity against SETIT: very good herbicidal activity (a very good herbicidal activity is given at values of at least 85)
ABUTH
  herbicidal activity against ABUTH: good herbicidal activity (A good herbicidal activity is given at values of at least 70)
AVEFA
  herbicidal activity against AVEFA: good herbicidal activity (A good herbicidal activity is given at values of at least 70)
SETFA
  herbicidal activity against SETFA: good herbicidal activity (A good herbicidal activity is given at values of at least 70)
